From patent publication US11730720B2, “ALK5 inhibitors” (THERAVANCE BIOPHARMA R&D IP, LLC, priority 2018, dated 2023)

Columns and labels:
[1] = molecular target: T1, recombinant human ALK5 (TGF-βR1) protein (Homo sapiens, UniProt P36897); assay: Biochemical ALK5 (TGF-βR1) assay to measure pKi (LANCE Ultra ULight kinase assay); settings: apparent pKi, converted from pIC50 using the Cheng-Prusoff equation
T1 construct: purchased Life Technologies PR9075A
T1 sequence (P36897 34-503): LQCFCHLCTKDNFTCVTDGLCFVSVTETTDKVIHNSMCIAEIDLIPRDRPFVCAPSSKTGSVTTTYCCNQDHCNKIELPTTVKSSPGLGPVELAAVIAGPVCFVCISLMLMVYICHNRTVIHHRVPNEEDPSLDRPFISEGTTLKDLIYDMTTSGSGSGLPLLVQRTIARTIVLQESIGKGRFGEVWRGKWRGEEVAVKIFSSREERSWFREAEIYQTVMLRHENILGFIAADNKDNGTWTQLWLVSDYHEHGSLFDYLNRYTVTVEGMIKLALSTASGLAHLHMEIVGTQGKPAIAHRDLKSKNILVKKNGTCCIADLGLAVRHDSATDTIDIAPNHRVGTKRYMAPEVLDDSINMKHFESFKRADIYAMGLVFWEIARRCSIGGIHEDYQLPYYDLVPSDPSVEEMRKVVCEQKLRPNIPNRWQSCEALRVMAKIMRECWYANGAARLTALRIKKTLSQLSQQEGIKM
In short: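 TR-FRET kinase format: compound dose range 10 μM–25 pM equilibrated 60 min with human ALK5 and ULight-labelled topoisomerase 2α peptide in HEPES/MgCl2 buffer pH 7.5 with DTT. Reaction started with ATP (125 μM stock, 5× final), 60 min at 37° C, stopped with EDTA/Eu-anti-phospho antibody; pKi derived from pIC50 via Cheng-Prusoff.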

[2] = system: TGF-β-stimulated SMAD3 phosphorylation in BEAS-2B cells; assay: Cellular ALK5 potency assay, inhibition of TGF-β stimulated pSMAD3 formation in BEAS-2B cells; type: cell-based; settings: Homo sapiens, inhibition of TGF-β (10 ng/mL) stimulated pSMAD3 formation, 1 hour compound incubation, read-out: BEAS2B pIC50 (converted)
In short: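 Phospho-SMAD3 was quantified by AlphaLISA in lysates of human lung epithelial BEAS-2B cells. Compound was added 1 h (37 °C, HEPES/BSA-supplemented HBSS) before a 30 min challenge with 10 ng/mL TGF-β. Values are pIC50 relative to stimulated cells without compound.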

| SMILES | Ki [1] | IC50 [2] |
| --- | --- | --- |
| C[C@@H]1CN(CCNc2cnc3ccc(-c4nc[nH]c4-c4cccc(Cl)c4)cc3c2)C[C@H](C)N1 [Compound 24-3, 6-[5-(3-chlorophenyl)-1H-imidazol-4-yl]-N-[2-[(3R,5S)-3,5-dimethylpiperazin-1-yl]ethyl]quinolin-3-amine] | 0.398 to 3.16 nM | 25.1 to 158 nM |
| Clc1cccc(-c2[nH]cnc2-c2ccc3ncc(NCCN4CCNCC4)cc3c2)c1 [Compound 24-4, 6-[5-(3-chlorophenyl)-1H-imidazol-4-yl]-N-(2-piperazin-1-ylethyl)quinolin-3-amine] | 0.398 to 3.16 nM | 25.1 to 158 nM |
| CNC1CCN(c2cnc3ccc(-c4c(-c5cc(Cl)ccc5F)[nH]c5cccnc45)nc3c2)CC1 [Compound 25-1, 1-[6-[2-(5-chloro-2-fluoro-phenyl)-1H-pyrrolo[3,2-b]pyridin-3-yl]-1,5-naphthyridin-3-yl]-N-methyl-piperidin-4-amine] | 3.98 to 31.6 nM | 200 to 1260 nM |
| CNCCn1cc(-c2cnc3ccc(-c4c(-c5cc(Cl)ccc5F)[nH]c5cccnc45)nc3c2)cn1 [Compound 25-2, 2-[4-[6-[2-(5-chloro-2-fluoro-phenyl)-1H-pyrrolo[3,2-b]pyridin-3-yl]-1,5-naphthyridin-3-yl]pyrazol-1-yl]-N-methyl-ethanamine] | 0.398 to 3.16 nM | 200 to 1260 nM |
| CNCCn1cc(-c2cnc3ccc(-c4c(-c5cc(Cl)c(F)cc5F)[nH]c5cccnc45)nc3c2)cn1 [Compound 26-1, 2-[4-[6-[2-(5-chloro-2,4-difluoro-phenyl)-1H-pyrrolo[3,2-b]pyridin-3-yl]-1,5-naphthyridin-3-yl]pyrazol-1-yl]-N-methyl-ethanamine] | 0.0398 to 0.316 nM | 200 to 1260 nM |
| CNCCn1cc(-c2cnc3ccc(-c4c(-c5ccc(F)c(F)c5)[nH]c5cccnc45)nc3c2)cn1 [Compound 27-1, 2-[4-[6-[2-(3,4-difluorophenyl)-1H-pyrrolo[3,2-b]pyridin-3-yl]-1,5-naphthyridin-3-yl]pyrazol-1-yl]-N-methyl-ethanamine] | 3.98 to 31.6 nM | 25.1 to 158 nM |
| CC(C)N1CCN(CCNc2cnc3ccc(-c4c[nH]nc4-c4cccc(Cl)c4)nc3c2)CC1 [Compound 28-1, 6-(3-(3-chlorophenyl)-1H-pyrazol-4-yl)-N-(2-(4-isopropylpiperazin-1-yl)ethyl)-1,5-naphthyridin-3-amine] | 0.0398 to 0.316 nM | 25.1 to 158 nM |
| CC(C)N1CCN(CCNc2cnc3ccc(-c4nc[nH]c4-c4cccc(Cl)c4)nc3c2)CC1 [Compound 29-1, 6-(5-(3-chlorophenyl)-1H-imidazol-4-yl)-N-(2-(4-isopropylpiperazin-1-yl)ethyl)-1,5-naphthyridin-3-amine] | 0.398 to 3.16 nM | ≤ 20 nM |
| C[C@@H]1CN(CCNc2cnc3ccc(-c4nc[nH]c4-c4cccc(Cl)c4)nc3c2)C[C@H](C)N1 [Compound 29-2, 6-[5-(3-chlorophenyl)-1H-imidazol-4-yl]-N-[2-[rac-(3R,5S)-3,5-dimethylpiperazin-1-yl]ethyl]-1,5-naphthyridin-3-amine] | 0.398 to 3.16 nM | 25.1 to 158 nM |
| COC(=O)CC1CN(c2cnc3ccc(-c4nc[nH]c4-c4cccc(Cl)c4)nc3c2)CCN1 (stereo not shown) [Compound 29-3, methyl 2-(4-(6-(5-(3-chlorophenyl)-1H-imidazol-4-yl)-1,5-naphthyridin-3-yl)piperazin-2-yl)acetate] | 0.398 to 3.16 nM | 25.1 to 158 nM |
| O=C(O)CC1CN(c2cnc3ccc(-c4nc[nH]c4-c4cccc(Cl)c4)nc3c2)CCN1 (stereo not shown) [Compound 29-4, 2-(4-(6-(5-(3-chlorophenyl)-1H-imidazol-4-yl)-1,5-naphthyridin-3-yl)piperazin-2-yl)acetic acid] | 0.398 to 3.16 nM | 1580 to 10000 nM |
